Series [1] in a line: Solubility of MSLs in water. The source says: If the material precipitates upon cooling or was to some extent insoluble, the insoluble material was separated by filtration, dried and weighed.
Series [2] in a line: Emulsion type: dilution test and oil soluble dye staining. The class given is physicochemical. The conditions noted are these: for emulsion type by Oil Red O staining: 2%-by-weight relative to water phase, oil/water 5/5 and 7/3. The method, then:
In this test the emulsion is diluted either with oil (O) or water (W). If the emulsion is O/W type and it is diluted with water, it will remain stable as water is the dispersion medium. However, if the emulsion is O/W type and it is diluted with oil, the emulsion will break as oil and water are not miscible with each other. […] Emulsions of the O/W type have separated layers after dilution with pure oil but form a homogenous phase when diluted by water. Unless otherwise specified, the emulsion type formed by MSLs were oil in water.
In FIG. 13B, the tube on the left was diluted with 1 mL of oil whereas the tube on right was diluted with water. Visual observation of the tubes in FIG. 13B supports that the emulsions formed are indeed O/W emulsions.
Oil Red O was applied as an oil soluble dye and emerald green as water soluble dye in the process of emulsion preparation. Observations of emulsions were made before and after staining under optical microscope at 400× magnification (FIG. 14). […] The formation of O/W emulsions and not W/O emulsions with this set of MSL compounds would not be obvious to one skilled in the art. We believe that O/W emulsions are formed by this set of MSLs due to that large sophorose polar head groups requires relatively more space than the lipid tails and, therefore self-assemble into spherical type structures where disaccharide groups are locating outside the droplets.

Series [3] is described as follows: Emulsion stability based on phase separation. The class given is physicochemical. The conditions noted are these: for emulsion layer percentage: paraffin oil/water 5/5, 2%-by-weight emulsifier, after 24 hours at 25° C. The method, then:
The emulsion was obtained by homogenizing the oil and water mixture and was allowed to settle at room temperature for 24 hours. […] Then, this mixture was homogenized at 13,000 rpm for 2 minutes. Thereafter, the resulting emulsion was left unagitated at 25° C. for 24 hours. Surfactants which give a larger emulsion phase are denoted as having higher emulsion effectiveness (Process Safety and Environment protection, 2005, 83, 38-46). […] Thus, unexpectedly, that longer alkyl chains, at least up to butyl and hexyl, provided improved interfacial stability at the paraffin oil/water interface. […] Apparently, ester bonds of SL-esters are less disruptive to organization at the oil water interface than amide bonds of SL-amides. […] The acidic SL (3) gave an 8% emulsion layer, much lower than the MSL examples given herein. Similarly, the natural SL (1) mixture gave a 10% emulsion layer. This performance is also far below that of SL-butyl amide (24), hexyl amide (25), butyl ester (8) and hexyl ester (16).
After homogenized at 13,000 rpm for 2 minutes, the emulsions were kept at room temperature and separation of the respective oil, emulsion and water layers was recorded for up to 1 month.

Series [4] is described as follows: Crude oil clearing/displacement activity. The conditions noted are these: 20 μL of 1 mg/mL solution. The method, then: Oil cleaning assays were performed using Louisiana Crude, Arabian Light Crude, and Prudhoe Bay Crude as the oil phase. In one study, the oil clearing/displacement activity of MSLs were assessed using a crude oil layer on top of sea water in order to simulate oil spill type conditions. Sea water (20 mL) was transferred to plastic Petri dishes and 20 μL of a crude oil type was added on top of the water to create an oil layer. Subsequently, a 20 μL aliquot of MSL solution (1 mg/mL) was added dropwise to the top of the oil layer. The instantaneous formation of an oil clearing zone as well as the diameter of the clearing zone was determined as a function of the dispersant used. […] Furthermore, the oil displacement activity of SL-ethyl ester and SL-butyl ester was slightly higher than Triton-X-100 for Arabian Light crude.

For series [5] the following is noted: SL-esters; from earlier publication in Colloids and surfaces, 2004, 240, 75; cited from earlier work.
Series [6] can be described thus: Solubility in distilled water without additives, compounds alone and mixed. The settings on record: without any additives.
Series [7] is described as follows: Surface tension versus surfactant concentration: CMC and minimum surface tension. Type of series: physicochemical. The conditions noted are these: SL-amides; 25° C. The method, then:
The surface tension change with the increase of surfactant concentration of a series of SL amides was measured at 25° C. and the results are shown in Table 2. CMC and minimum surface tension (MST) decrease as the chain length of the n-alkyl amide moiety increase. […] This trend can be explained by the increased hydrophobicity of the surfactant hydrophobic tail with increased chain length of the n-alkyl amide.
The relation of CMC within a homologous series of surfactants and the carbon chain length (straight-chain), n, is usually described as: Log (CMC)=A−Bn (1)
Where A and B are constants specific to the series and n is the carbon on the hydrophobic chains. It was reported that the CMC of alkyl-β-D-glucoside decreased by ⅓ for each additional CH2 group (L. Zhang. D.E.S. Thesis, Columbia University). For a series of SL-esters prepared from n-alkanols of varying chain length, the CMC decreased by ½ per additional CH2 group (L. Zhang Colloid Surface, 240, 2004, 75).

Series [8] can be described thus: Emulsion droplet size distribution, Coulter LS 230 analyzer. Type of series: physicochemical. The settings on record: paraffin oil-to-water 7:3 v/v, 25° C. The method, then: Emulsified oil droplet size (average and standard deviation) was measured after suitable dilution of the emulsion phase using a Coulter LS 230 analyzer. […] Relative to natural and lactonic SL, selected MSLs show improved properties as emulsifiers on paraffin oil.
After being aged for 3-months, emulsified oil droplet size (average and standard deviation) was measured after suitable dilution of the emulsion phase using a Coulter LS 230 analyzer and the results are listed in Table 5. […] However, increasing the surfactant concentration from 1 to 2% did result in substantially smaller emulsion-phase droplet sizes. […] This is evidence that MSL's can stabilize oil phases greatly decreasing their tendency to undergo coalescence. […] It follows that the results of 3-month aging studies support the utility of selected MSLs for formation and stabilization of oil-in-water emulsions of paraffin oil phases. One skilled in the art would expect that the ability of these MSLs to stabilize paraffin oil phases teaches that they would also stabilize oil phases of similar structure.

Series [9] is described as follows: Emulsion viscosity measurement. The conditions noted are these: oil/water 7/3, 1% MSL, shear rate 1 S^−1. The class given is physicochemical. The method, then:
Viscosity was measured at 25° C. with increasing shear rate from 1 S^−1 to 750 S^−1. The viscosity change was monitored for aging times up to 3 months. For all samples, the paraffin oil/water ratio is 7/3 and the surfactant concentrations studied were 0.5%, 1% to 2%-by-weight relative to the oil phase. FIG. 19 presents the viscosity change with shear rate for different aging times. […] The emulsion tested was prepared using 2%-by-weight SL-butyl ester relative to paraffin oil. Viscosity decreases with increased shear rate implying the emulsion follows shear shinning. Furthermore, viscosity decreased with increased storage time. […] This change is consistent with the small increase in oil phase particle size (1.7 to 2.1 μm) with aging from 1 day to 3-months (Tables 4 and 5).
Values of ηlow decreased with storage time to various extents that are dependent on the MSL compound used to stabilize the emulsion. […] The relative ability of different MSL structures to stabilize emulsions and thereby decrease the extent of decrease in viscosity as a function of aging time would not be predictable by one skilled in the art. The behavior as a function of MSL structure is related to emulsion dispersed phase droplet size. That is, the smaller the change in droplet size, the less decrease in emulsion viscosity occurs with increased aging time. Smaller changes in droplet size reflects the ability of the emulsifier to better stabilize particles. For example, the viscosity of the emulsion stabilized by SL-butyl amide decreased by 65% (from 344 Pas to 120 Pas) whereas the viscosity of the emulsion stabilized by SL-hexyl ester decreased by 20% (from 457 Pas to […]).
The viscosity was measured 24 hours after emulsion preparation. The viscosity increased with increasing surfactant concentration. Such behavior could not have been predicted by one skilled in the art without the teaching provided in this disclosure. The extent of viscosity change with surfactant concentration is related to the interfacial free energy at the droplet surface that reduces with the increase of surfactant concentration.

Each structure is given as a SMILES string. Read-outs that look alike come from different tables or passages of the source.

For orientation: Solubility means the dissolved amount per volume that the medium holds. Lower therefore signals little dissolved substance. In the case of `COC(=O)CCCCCCCC=CCCCCCCC(C)OC1OC(CO)C(O)C(O)C1OC1OC(CO)C(O)C(O)C1O` (stereo not drawn) [Compound 6, SL-Methyl Ester], the Solubility is under 1 mg/mL in series [1] (distilled water, 25° C.) and under 1 mg/mL in series [1] (distilled water, 25° C., listed as methyl ester). Further, the “emulsion type by Oil Red O staining” value in series [2] is recorded as “O/W”. In series [3], the emulsion layer percentage entry is “no emulsion layer was observed”. For the same compound, the “Oil displacement activity (diameter of the clearing zone)” value is reported as 5.5 ± 0.1 cm in [4] (Arabian Light Crude on sea water), 6.5 ± 0.4 cm in series [4] (Louisiana Crude on sea water) and 6.9 ± 0.1 cm in series [4] (Prudhoe Bay Crude on sea water). Besides, the “CMC Range” value in series [5] is 95-100 10^−6M. Besides, in [5], the “MST (minimum surface tension)” value is 38.4 mN/m. Besides, the “solubility in distilled water” value in series [6] is given as “less than 1 mg/L”.

As for `CNC(=O)CCCCCCCC=CCCCCCCC(C)OC1OC(CO)C(O)C(O)C1OC1OC(CO)C(O)C(O)C1O` (stereo not drawn) [Compound 22, SL-Methyl Amide], in [7], the “CMC Range” value is 650-670 10^−6M and the “MST (minimum surface tension)” value is reported as 43.3 mN/m. Further, the “emulsion type by Oil Red O staining” value in series [2] is listed as “O/W”. Further, in [3], the emulsion layer percentage result is “no emulsion layer was observed”.

As for `CCNC(=O)CCCCCCCC=CCCCCCCC(C)OC1OC(CO)C(O)C(O)C1OC1OC(CO)C(O)C(O)C1O` (stereo not drawn) [Compound 23, SL-Ethyl Amide], in [7], the “CMC Range” value is on record as 300-310 10^−6M and the “MST (minimum surface tension)” value is given as 40.9 mN/m. Besides, the Solubility in [1] is over 40 mg/mL. For the same compound, the “emulsion type by Oil Red O staining” value in [2] is recorded as “O/W”. For the same compound, the emulsion layer percentage entry in series [3] is on record as “no emulsion layer was observed”.

`CCCCNC(=O)CCCCCCCC=CCCCCCCC(C)OC1OC(CO)C(O)C(O)C1OC1OC(CO)C(O)C(O)C1O` (stereo not drawn) [Compound 24, SL-Butyl Amide]: the “CMC Range” value in series [7] is on record as 45-50 10^−6M. The “MST (minimum surface tension)” value in series [7] is recorded as 38.7 mN/m. Moreover, the Solubility in series [1] is on record as over 40 mg/mL. Also, the “emulsion type by Oil Red O staining” value in series [2] is on record as “O/W”. The “emulsion layer in 3 days” value in series [3] (oil/water 5/5, 2%-by-weight, 3 days) is “not observed in 3 days”. In [3], the emulsion layer percentage worked out at 20%. Besides, the Average droplet size is on record as 3.0 ± 0.2 μm in series [8] (0.5 weight %, 24 hours); 6.3 ± 1.0 μm in series [8] (0.5 weight %, aged 3-months); 2.5 ± 0.2 μm in [8] (1 weight %, 24 hours); 4.7 ± 0.8 μm in [8] (1 weight %, aged 3-months); 1.9 ± 0.1 μm in [8] (2 weight %, 24 hours); 3.0 ± 0.4 μm in series [8] (2 weight %, aged 3-months). The “low shear emulsion viscosity, after aging period” value in series [9] was determined as 120 Pas. Also, in series [9], the “low shear emulsion viscosity, before aging” value worked out at 344 Pas. For the same compound, in [9], the “viscosity decrease over the aging period” value turned out to be 65%.

Consider `CCCCCCNC(=O)CCCCCCCC=CCCCCCCC(C)OC1OC(CO)C(O)C(O)C1OC1OC(CO)C(O)C(O)C1O` (stereo not drawn) [Compound 25, SL-Hexyl Amide], for which the “CMC Range” value in series [7] is 29-32 10^−6M. Further, the “MST (minimum surface tension)” value in [7] was determined as 36.5 mN/m. For the same compound, the Solubility in series [1] (distilled water, 25° C.) was under 11 mg/mL. Besides, the “emulsion type by Oil Red O staining” value in [2] is “O/W”. In [2] (2 weight % emulsifier, water/oil ratio 5/5, paraffin), the “emulsion type by dilution test” value is “O/W emulsions”. Further, the “emulsion layer volume-%, one month” value in series [3] (oil/water 5/5, 2%-by-weight, one month at room temperature) was determined as 10%. Also, the “emulsion layer volume-%, start” value in [3] (oil/water 5/5, 2%-by-weight, start of aging) was determined as 65%. The compound also gave an emulsion layer percentage in [3] of 60%. Also, the Average droplet size in series [8] (0.5 weight %, 24 hours) is listed as 2.7 ± 0.4 μm; in series [8] (0.5 weight %, aged 3-months), 4.0 ± 0.4 μm; in series [8] (1 weight %, 24 hours), 2.7 ± 0.2 μm; in series [8] (1 weight %, aged 3-months) it was 3.7 ± 0.7 μm; in [8] (2 weight %, 24 hours), 1.7 ± 0.1 μm; in series [8] (2 weight %, aged 3-months), 2.2 ± 0.5 μm.
